In patent USRE42700E1, “Induction of apoptosis in cancer cells” (Sanford-Burnham Medical Research Institute, priority 2001, dated 2011):

How the values were obtained:
[1] = tested on: Murine AML 1498 cells; assay: murine AML 1498 implanted intravenously in C57BL/6 mice
From the text: Tumor Maintenance: Murine AML1498 cells were maintained in the mouse strain of origin (C57BL/6) and transplanted into this same inbred strain chemotherapy trials. Individual mouse body weights for each experiment were within five grams, and all mice were more than 20 grams (mean) at the start of therapy. Mice were supplied food and water ad libitum.
Treatment was started the day after implantation of AML cells.
End Points for Assessing Antitumor Activity: The following quantitative endpoints were used to assess antitumor activity
a) Percent Increase in Lifespan (% ILS): For leukemic mice: • % ILS=(T−C)/C×100; in which C=median day of death of control group and T=median day of death of treated group. Survival was the endpoint; with moribund mice sacrificed. Cause of death was verified by necropsy.
b) Calculation of Tumor Cell Kill: For leukemic survival trials, the log10 cell kill was calculated from the following formula:
[formula] where T is median day of death for treated group and C is median day of death for control group (Corbett, T. H., et al., Invest. New Drugs, 17: 17-27 (1999) and Teicher, B. A., In vivo tumor response end points, In Tumor Models in Cancer Research, B. Teicher, editor, Humana Press Inc./Totowa, N.J., pp. 593-616 (2001)). Td is determined from differences in the median days of death of the titered control groups.

[2] = tested on: MDA-MB-468; assay: apoptosis induction / cell death in breast cancer cells; format: cell-based, human
[3] = tested on: MDA-MB-231; assay: as above; format: cell-based, human
[4] = tested on: ALL cells obtained from patients; assay: apoptosis of primary ALL cells obtained from patients; format: cell-based, human; conditions: primary cultures
[5] = tested on: human acute megakaryocytic leukemia cell line M07e; assay: M07e cell growth / proliferation; format: cell-based
Method: Cell Growth: IL-3-transfected M07e cells have been described by Thacker, D. J., et al., Leukemia 8: 871-877 (1994). Cells were grown in RPMI supplemented with 5 percent heat-inactivated fetal bovine serum (FBS) and 25 μg/ml gentamycin in a […], 5% CO2, and 100% humidity environment. Leukemic cells were obtained from patients who met the criteria for the diagnosis of AML or CML in blast crisis (see Table 1). Studies were approved by the Wayne State University Institutional Review Board. Informed consent was obtained from all patients. Leukemic blasts from patients were isolated using Ficoll hypaque. Cells at the interface between plasma and red blood cells were diluted with sterile PBS, then layered over Ficoll hypaque (1.077 density), and the leukemic cells collected at the interface. The sample to be studied represented greater than 90% blasts. The patient leukemia samples were grown in RPMI medium supplemented with 10% FBS, gentamycin (25 μg/ml), IL-3 (20 ng/ml), SCF (25 ng/ml), GM-CSF (20 ng/ml) and G-CSF (20 ng/ml). Cell growth was assessed using a cell proliferation kit.

[6] = tested on: ZR-75; assay: apoptosis induction / cell death in breast cancer cells; format: cell-based, human
[7] = tested on: caspases in M07e cells; assay: caspase activation in M07e cells; format: cell-based, human
Method: Activation of caspases-1, -2, -3, -6, -8 and -9 was assessed using a caspase activation kit.

[8] = tested on: prostate cancer LNCaP, lung cancer NCI-H460, breast cancer ZR-75-1 and MDA-MB231 cells; assay: DAPI staining apoptosis in cancer cell lines; format: cell-based; conditions: 10^−6 M
Method: In FIG. 11, the indicated cancer cells were treated with 10^−6 M 3-Cl-AHPC, trypsinized, washed with PBS, fixed with 3.7% paraformaldehyde, and stained with 50 μg/ml DAPI containing 100 μg/ml DNase-free RNase A to visualize nuclei by fluorescent microscopy. The number of apoptotic cells with nuclear morphology typical of apoptosis, including nuclear fragmentation and condensation, was scored in at least 400 cells in each sample using a fluorescence microscope. In FIG. 12, the indicated cancer cells were treated with 10^−6 M 3-Cl-AHPC, trypsinized, washed with PBS, fixed with 3.7% paraformaldehyde, and stained with 50 μg/ml DAPI containing 100 μg/ml DNase-free RNase A to visualize nuclei and examined by fluorescent microscopy. Number of apoptotic cells with nuclear morphology typical of apoptosis, including nuclear fragmentation and condensation, was scored in at least 400 cells in each sample using a fluorescence microscope.

[9] = target: RARα (Homo sapiens, UniProt P10276); assay: activation of RARα on the (TREpal)2-tk-CAT reporter construct; format: cell-based; conditions: 1.0 μM
Sequence of RARα (P10276 whole entry, species assumed): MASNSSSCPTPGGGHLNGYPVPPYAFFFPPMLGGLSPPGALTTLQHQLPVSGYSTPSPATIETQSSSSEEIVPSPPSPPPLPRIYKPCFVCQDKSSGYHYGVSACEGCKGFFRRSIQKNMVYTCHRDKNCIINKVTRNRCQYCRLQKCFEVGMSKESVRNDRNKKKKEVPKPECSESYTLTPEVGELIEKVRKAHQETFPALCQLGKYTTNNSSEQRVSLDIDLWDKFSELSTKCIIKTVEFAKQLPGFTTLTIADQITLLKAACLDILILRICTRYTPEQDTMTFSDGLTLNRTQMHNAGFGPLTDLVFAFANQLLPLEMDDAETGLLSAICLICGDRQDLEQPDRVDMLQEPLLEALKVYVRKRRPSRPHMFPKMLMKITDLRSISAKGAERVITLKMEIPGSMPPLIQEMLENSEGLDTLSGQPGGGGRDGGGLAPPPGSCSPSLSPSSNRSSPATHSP

[10] = tested on: cancer cells; assay: mitochondrial membrane potential (Δψm) using Rh123; format: cell-based; conditions: 10^−6 M
[11] = target: RXRα (Homo sapiens, UniProt P19793); assay: activation of RXRα on the (TREpal)2-tk-CAT reporter construct; format: cell-based; conditions: 1.0 μM
Sequence of RXRα (P19793 whole entry): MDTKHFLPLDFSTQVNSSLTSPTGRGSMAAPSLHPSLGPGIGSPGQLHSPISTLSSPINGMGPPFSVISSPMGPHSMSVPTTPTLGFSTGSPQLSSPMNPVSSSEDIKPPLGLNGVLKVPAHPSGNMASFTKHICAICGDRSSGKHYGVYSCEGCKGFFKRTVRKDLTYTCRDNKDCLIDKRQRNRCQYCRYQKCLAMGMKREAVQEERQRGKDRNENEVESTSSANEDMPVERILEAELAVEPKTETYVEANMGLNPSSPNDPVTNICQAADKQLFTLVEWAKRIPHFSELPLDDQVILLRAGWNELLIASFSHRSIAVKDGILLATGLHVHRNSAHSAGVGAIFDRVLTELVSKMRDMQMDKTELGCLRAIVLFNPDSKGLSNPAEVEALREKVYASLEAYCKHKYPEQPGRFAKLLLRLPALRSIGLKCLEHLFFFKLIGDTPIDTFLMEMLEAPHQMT

[12] = target: RARγ (Homo sapiens, UniProt P13631); assay: activation of RARγ on the (TREpal)2-tk-CAT reporter construct; format: cell-based
Sequence of RARγ (P13631 whole entry, species assumed): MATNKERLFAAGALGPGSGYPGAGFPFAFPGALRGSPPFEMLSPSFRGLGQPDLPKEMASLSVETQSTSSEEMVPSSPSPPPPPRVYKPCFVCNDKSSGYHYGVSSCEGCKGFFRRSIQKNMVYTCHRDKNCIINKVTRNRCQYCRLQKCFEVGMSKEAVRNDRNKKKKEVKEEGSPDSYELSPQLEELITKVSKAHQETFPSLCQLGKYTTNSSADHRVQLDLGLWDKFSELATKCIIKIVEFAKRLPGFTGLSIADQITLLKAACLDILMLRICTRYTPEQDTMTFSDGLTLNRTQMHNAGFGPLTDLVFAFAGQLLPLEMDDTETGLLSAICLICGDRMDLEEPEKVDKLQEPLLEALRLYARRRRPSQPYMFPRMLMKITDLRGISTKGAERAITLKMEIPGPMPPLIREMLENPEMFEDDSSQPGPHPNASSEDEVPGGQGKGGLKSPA

[13] = tested on: Bcl-XL in leukemic cells; assay: Bcl-XL cleavage by Western blot; format: cell-based, human; conditions: 1 μM
Method: Western Blots: Western blots were performed according to the protocol of Sheikh, M. S., et al., (Oncogene, 9: 3407-3415 (1994)). Logarithmically growing cells were treated with 3-Cl-AHPC for various times and cells were harvested and lysed in Laemmli lysis buffer (0.5 M Tris-HCl, pH 6.8, 0.002M EDTA, 10% glycerol, 10% sodium dodecyl sulfate (SDS), and 5% β-mercaptoethanol). Protein lysates (50 μg/lane) were electrophoresed on 12% SDS-polyacrylamide gels and transferred to nitrocellulose membranes. Membranes were blocked with 5% nonfat dried milk in PBS/0.5% Tween 20 and then incubated with the appropriate antibodies. Horseradish peroxidase-conjugated rabbit anti-mouse IgG was used as the secondary antibody, and bands were developed using the Amersham ECL non-radioactive method.

[14] = total dose 80 mg/kg, qd 1-5, 5 × 10^6 cells
[15] = total dose 115 mg/kg, qd 1-5, 5 × 10^6 cells
[16] = total dose 140 mg/kg, qd 1-4, 5 × 10^6 cells

In the case of `O=C(O)/C=C/c1ccc(-c2ccc(O)c(C34CC5CC(CC(C5)C3)C4)c2)c(Cl)c1` [Example 3-Cl-AHPC, (E)-4-[3-(1-Adamantyl)-4-hydroxyphenyl]-3-chlorocinnamic acid], the animal deaths ([1]; 140 mg/kg total dose over four days) is reported as “no animal deaths”, the “Body Wt. Loss” value [1, 14] is reported as “+0.0%” and the ILS [1, 14] is reported as 50%. The “Log cell kill” value [1, 14] was 2.6, the “Mean Body Wt. Loss” value [1, 14] was “+0.0 g/mouse” and the “Median Day of Tumor Death (range)” value [1, 14] was 9 (8,9,9,9,10). For the same molecule, the ILS [1, 15] was 83%, the “Log cell kill” value [1, 15] was 3.3 and the “Median Day of Tumor Death (range)” value [1, 15] was 11 (10,10,11,11,11). For the same molecule, the “Mean Body Wt. Loss” value ([1]; total dose 115 mg/kg, qd 1-5, 5 × 10^6 cells, negative = loss) was −1.2 g/mouse, the ILS [1, 16] was 83% and the “Log cell kill” value [1, 16] was 3.3. The “Median Day of Tumor Death (range)” value [1, 16] was 11(10,11,11,11,11), the “Mean Body Wt. Loss” value ([1]; total dose 140 mg/kg, qd 1-4, 5 × 10^6 cells, negative = loss) was −3.6 g/mouse and the ED50 (concentration that results in 50% cell death) [2] was 710 nM. The ED50 (concentration that results in 50% cell death) [3] was 650 nM, the “apoptosis of ALL cells obtained from patients” value [4] was “resulted in their apoptosis” and the “concentration required to inhibit growth of M07e cells” value [5] was 0.2 µM. The inhibition of growth ([5]; 0.2 μM) was “inhibition of growth”, the inhibition of proliferation ([5]; varying concentrations over time) was “progressive increase in the inhibition of proliferation” and the ED50 (concentration that results in 50% cell death) [6] was 700 nM. The “increase in activity of caspase-2” value ([7]; 0.5 μM) was “approximately 2 fold”, the “increase in activity of caspase-3” value ([7]; 0.5 μM) was “approximately 2 fold” and the “increase in activity of caspase-6” value ([7]; 0.5 μM) was “approximately 2 fold”. For the same molecule, the “increase in activity of caspase-8” value ([7]; 0.5 μM) was “approximately 2 fold”, the “increase in activity of caspase-2” value ([7]; 1 μM) was “approximately 4 fold” and the “increase in activity of caspase-3” value ([7]; 1 μM) was 2.5 fold. The “increase in activity of caspase-6” value ([7]; 1 μM) was 3 fold, the “increase in activity of caspase-8” value ([7]; 1 μM) was “approximately 4 fold” and the “induction of apoptosis (DAPI staining)” value [8] was “potently induced apoptosis”. The “activation of RARα” value [9] was “does not activate”, the “percentage of cells with Δψm loss” value [10] was “significant increases in the percentage of cells with Δψm loss” and the “activation of RXRα” value [11] was “does not activate”. For the same molecule, the “activation of RARγ relative to that of 1.0 μM tRA” value [12] was “less than 10%” and the Bcl-XL cleavage [13] was “cleavage of Bcl-XL to a 18-kD product”.
